Patent US10300042B2, “Apremilast for the treatment of a liver disease or a liver function abnormality” (Celgene Corporation, priority 2014, dated 2019)

Legend:
Alanine Aminotransferase = assay: ALT levels in RA-002 (rheumatoid arthritis); format: in vivo, human; conditions: for ALT High to Normal, percent of patients / ALT Net Benefit / ALT Normal to High, percent of patients: end of treatment (week 16); for ALT High, % of patients / ALT Low, % of patients / ALT Normal, % of patients: Week 16
Procedure: The improvement in mild baseline liver function test abnormalities has been observed with apremilast daily use without any prescribed changes in physical activity, social or dietary habits. During the course of the study, there was observed a higher proportion of subjects in the 30 mg BID apremilast treatment group with normal LFTs at subsequent placebo-controlled study visits at week 16. See Tables 17 to 24 from RA-002 studies.

PDE4 = PDE4 enzyme inhibition (enzyme purified from U937 human monocytic cells); format: biochemical; conditions: 1 μM cAMP, 45 min at 30° C.
Procedure: Phosphodiesterase 4 enzyme was purified from U937 human monocytic cells by gel filtration chromatography, and phosphodiesterase reactions were carried out as previously described. See Muller et al., Bioorg. Med. Chem. Lett., 1998, 8(19): 2669-2674. Briefly, reactions were carried out in 96-well deep-well plates in 50 mM Tris HCl pH 7.5, 5 mM MgCl2, 1 μM cyclic adenosine monophosphate (cAMP), plus 10 nM [3H]-cAMP for 45 min at 30° C. The reactions were terminated by boiling, treated with 1 mg/ml snake venom, and separated using AG-1X8 ion exchange resin (BioRad). Reactions consumed less than 15% of available substrate.

[1] = system: patients with moderate to severe plaque psoriasis; assay: Pruritus in ESTEEM 2; format: in vivo, human; conditions: Week 16, 30 mg BID
Procedure: Patients were randomized with Apremilast in an amount of 30 mg twice per day or placebo for the first 16 weeks, and from Weeks 16 to 32, all patients received Apremilast in an amount of 30 mg twice per day.

[2] = system: Aspartate Aminotransferase; assay: AST levels in PALACE 1, 2, and 3 clinical studies; format: in vivo, human
Description: Apremilast was studied in Phase 3 trials in both psoriatic arthritis and psoriasis patient populations and a Phase 2 trial in rheumatoid arthritis patients on background methotrexate. […] The improvement in mild baseline liver function test abnormalities has been observed with apremilast daily use without any prescribed changes in physical activity, social or dietary habits. The majority of the patient populations in both the psoriatic arthritis and psoriasis studies were overweight with the mean BMI for subjects greater than or equal to 30, more than half were consuming alcoholic beverages regularly, approximately 60% were taking methotrexate at an average dose of […], and 70% were using non-steroidal anti-inflammatory drugs (NSAIDs). […] During the course of the study, there was observed a higher proportion of subjects in the apremilast treatment groups (both 20 mg BID and 30 mg BID) with normal LFTs (i.e. normal levels of ALT and AST) at subsequent placebo-controlled study visits at week 4, week 16, and week 24 (See Tables 1 to 10 from PALACE 1, 2, and 3 studies).

[3] = Baseline High, Week 24, 20 mg BID
[4] = Baseline High, Week 24, 30 mg BID
[5] = Baseline Normal, Week 24, 20 mg BID
[6] = Baseline Normal, Week 24, 30 mg BID
[7] = Baseline Total, Week 24, 20 mg BID
[8] = Baseline Total, Week 24, 30 mg BID

## CCOc1cc([C@@H](CS(C)(=O)=O)N2C(=O)c3cccc(NC(C)=O)c3C2=O)ccc1OC [Apremilast, (+)-2-[1-(3-ethoxy-4-methoxyphenyl)-2-methylsulfonylethyl]-4-acetylaminoisoindoline-1,3-dione]
Alanine Aminotransferase; 20 BID
  ALT High to Normal, percent of patients: 25.0%
  ALT Net Benefit: 14.3%
  ALT Normal to High, percent of patients: 4.5%
Alanine Aminotransferase; 30 BID
  ALT High to Normal, percent of patients: 66.7%
  ALT Net Benefit: 40.0%
  ALT Normal to High, percent of patients: 3.1%
Alanine Aminotransferase; 30 BID, week 16
  ALT High to Normal, Difference between Placebo and APR 30 BID: 0%
  ALT Net Benefit, Difference between Placebo and APR 30 BID: −26.7%
  ALT Normal to High, Difference between Placebo and APR 30 BID: 3.1%
Alanine Aminotransferase; 30 BID, week 16, listed as APR
  ALT High to Normal, Difference between Placebo and APR 30 BID: 0.0%
Alanine Aminotransferase; Baseline High, 20 mg BID
  ALT High, % of patients: 75.0%
  ALT Low, % of patients: 0.0%
  ALT Normal, % of patients: 25.0%
Alanine Aminotransferase; Baseline High, 30 mg BID
  ALT High, % of patients: 33.3%
  ALT Low, % of patients: 0.0%
  ALT Normal, % of patients: 66.7%
Alanine Aminotransferase; Baseline Normal, 20 mg BID
  ALT High, % of patients: 4.5%
  ALT Low, % of patients: 0.0%
  ALT Normal, % of patients: 95.5%
Alanine Aminotransferase; Baseline Normal, 30 mg BID
  ALT High, % of patients: 3.1%
  ALT Low, % of patients: 0.0%
  ALT Normal, % of patients: 96.9%
Alanine Aminotransferase; Baseline Total, 20 mg BID
  ALT High, % of patients: 8.6%
  ALT Low, % of patients: 0.0%
  ALT Normal, % of patients: 91.4%
Alanine Aminotransferase; Baseline Total, 30 mg BID
  ALT High, % of patients: 4.5%
  ALT Low, % of patients: 0.0%
  ALT Normal, % of patients: 95.5%
PDE4
  IC50: 73.5 nM
[1]
  Change in Pruritus Visual Analog Scale (mm ± SD): −33.5 (±35.46) mm
[2]; 20 BID, end of treatment
  AST High to Normal, percent of patients: 60.9%
  AST Net Benefit: 32.6%
  AST Normal to High, percent of patients: 5.0%
[2]; 30 BID, end of treatment
  AST High to Normal, Difference between Placebo and APR 30 BID: 13.3%
  AST High to Normal, percent of patients: 73.3%
  AST Net Benefit: 48.9%
  AST Net Benefit, Difference between Placebo and APR 30 BID: 23.9%
  AST Normal to High, Difference between Placebo and APR 30 BID: −6.4%
  AST Normal to High, percent of patients: 3.8%
[2]; [3]
  AST High, % of patients: 39.1%
  AST Low, % of patients: 0.0%
  AST Normal, % of patients: 60.9%
[2]; [4]
  AST High, % of patients: 26.7%
  AST Low, % of patients: 0.0%
  AST Normal, % of patients: 73.3%
[2]; [5]
  AST High, % of patients: 5.0%
  AST Low, % of patients: 0.0%
  AST Normal, % of patients: 95.0%
[2]; [6]
  AST High, % of patients: 3.8%
  AST Low, % of patients: 0.0%
  AST Normal, % of patients: 96.2%
[2]; [7]
  AST High, % of patients: 6.8%
  AST Low, % of patients: 0.0%
  AST Normal, % of patients: 93.2%
[2]; [8]
  AST High, % of patients: 5.4%
  AST Low, % of patients: 0.0%
  AST Normal, % of patients: 94.6%
[2]; Week 4, 20 mg BID
  Baseline High AST: High %: 38.6%
  Baseline High AST: Normal %: 61.4%
  Baseline High AST: Normal % difference from Placebo: 9%
[2]; Week 4, 30 mg BID
  Baseline High AST: High %: 42.2%
  Baseline High AST: Normal %: 57.8%
  Baseline High AST: Normal % difference from Placebo: 5.4%
[2]; Week 16, 20 mg BID
  Baseline High AST: High %: 38.5%
  Baseline High AST: Normal %: 61.5%
  Baseline High AST: Normal % difference from Placebo: −4.3%
[2]; Week 16, 20 mg BID, stated as a decrease
  decrease in the number of patients with normal levels of AST compared to the placebo group: 4.3%
[2]; Week 16, 30 mg BID
  Baseline High AST: High %: 25.0%
  Baseline High AST: Normal %: 75.0%
  Baseline High AST: Normal % difference from Placebo: 9.2%
[2]; Week 24, 20 mg BID
  Baseline High AST: High %: 44.4%
  Baseline High AST: Normal %: 55.6%
  Baseline High AST: Normal % difference from Placebo: 5.6%
[2]; Week 24, 30 mg BID
  Baseline High AST: High %: 24.2%
  Baseline High AST: Normal %: 75.8%
  Baseline High AST: Normal % difference from Placebo: 25.8%
